Where “and” joins values, the source holds several entries; their conditions need not be identical. Equal values may be shown once. Values belong to the molecule of their own block, whether it stands above or below them.
What was measured:
[1] = tested on: NIH/3T3 mouse embryonic cells; assay: Test of proliferation inhibition on NIH/3T3 mouse embryonic cells (CellTiter-Glo, with TGF-β1); type: cell-based; conditions: NIH3T3, 0.2 ng/mL TGF-β1, 72 h
Experimental: Promega's Luminescent Cell Viability Assay (CellTiter-Glo® method, i.e. ATP fluorescence activity detection and analysis), the compound is added to the cell culture plate for incubation. A substrate buffer for detecting intracellular ATP content was added on the day of detection. Slightly shake and centrifuge at 1000 rpm for 1 min. Tested after standing for 10 min. The assay plate was analyzed using Envision multifunctional enzyme marker of PerkinElmer, Inc., and the analysis mode was fluorescence detection, and the data was expressed by the reading of chemiluminescence signal at 400-700 nm.
i) When the cell growth coverage is about 70%, the cell layer was washed with 10 mL of Duchenne phosphate buffer (D-PBS) which is calcium- and magnesium-free, then 2 mL of 0.25% trypsin-EDTA digest was added. The cell culture flask was placed in a CO2 carbon dioxide incubator at 37° C. and incubated for 3-5 min, then 8 mL of complete culture medium containing 2% FBS DMEM cells was added, and the cells were puffed evenly into single cell and counted by Vi-cell cytometer, and NIH/3T3 cell suspension was diluted to 0.375×10^5/mL cells.
ii) 50 μL of 2% DMEM-containing medium was added around the 384-well cell culture plate, then 40 μL of cell suspension was added to the remaining wells to 1500 cells per well. The distribution of the cells was observed under a microscope, and the cell plates were placed in a cell culture incubator with 5% CO2 at 37° C.
iii) Dilution of the compound refers to the preparation of the compound.
iv) A mixture of 2% fetal bovine serum containing 1 ng/mL TGF-β1 in DMEM medium was added manually to the compound intermediate plate, 20 μL per well.
v) The compound intermediate plate was shook slightly for 10 sec at 1000 rpm/min and centrifuge for 10 sec.
vi) 10 uL of the mixed liquid from steps 4 and 5 of each well was transferred to the inoculated cell plate to a final volume of 50 μL by using a Bravo liquid workstation, and the final concentration of TGF-β1 was diluted to 0.2 ng/mL, and centrifuged for 10 sec at 1000 rpm/min. The plates were placed in an incubator with 5% carbon dioxide at 37° C., 5% carbon dioxide for 72 h. The final concentration of the compound is: (unit: μM)
vii) The cell plate containing the compound was cultured in a cell incubator with 5% CO2 at 37° C. for 3 days.
viii) After that, 25 μL of ATP fluorescence activity detection solution was added to each well of the cell plate, then shook gently for about 1 min and centrifuged at 500 rpm/min for about 30 sec, and the reading was performed in an Envision instrument after standing at room temperature for 10 min in the dark.

TGF-βRI = target: T1, TGF-βRI (Homo sapiens, UniProt P36897); assay: Test of inhibitory activity of TGFβ-RI in vitro; type: biochemical; conditions: 10 μM ATP
T1 sequence (P36897 34-503): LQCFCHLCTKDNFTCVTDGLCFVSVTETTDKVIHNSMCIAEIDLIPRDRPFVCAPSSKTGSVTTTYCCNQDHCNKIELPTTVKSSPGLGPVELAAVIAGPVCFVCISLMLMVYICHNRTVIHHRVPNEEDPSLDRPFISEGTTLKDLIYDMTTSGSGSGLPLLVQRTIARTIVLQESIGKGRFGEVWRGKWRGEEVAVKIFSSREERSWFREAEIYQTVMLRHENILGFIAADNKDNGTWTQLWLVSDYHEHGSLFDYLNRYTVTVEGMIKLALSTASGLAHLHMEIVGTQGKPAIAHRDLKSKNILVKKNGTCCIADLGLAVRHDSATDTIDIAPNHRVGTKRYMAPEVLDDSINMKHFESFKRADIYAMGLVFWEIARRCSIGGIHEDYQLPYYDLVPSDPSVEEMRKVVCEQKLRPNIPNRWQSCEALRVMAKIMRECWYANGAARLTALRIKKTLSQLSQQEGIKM
Experimental: i) Test compound: the IC50 was determined by diluting into 10 gradient points with each gradient by three-fold dilution and with a starting concentration of 5 μM.
ii) The IC50 of reference compound LDN193189 was determined by diluting into 10 gradient points with each gradient by three-fold dilution and with a starting concentration of 20 μM.
iii) The reaction system contains 10 μM ATP.
iv) Calculate the IC50 value by curve fitting when the percentage of enzyme activity (compared to the solvent group) is below 65% at the highest concentration of the sample.

liver cancer = conditions: phase 2, patients with liver cancer; cited from earlier work
CT-26 cells = assay: Tumor cell proliferation inhibition in BALB/c mouse model of subcutaneously transplanted CT-26 cells, alone or combined with BioXcell-mPD-L1; type: in vivo; conditions: for Tumor volume: average ± SEM, small molecules 75 mg/kg PO twice a day, BioXcell-mPD-L1 10 mg/kg IP twice a week
Experimental: The following table lists the animal grouping and dosing regimen of embodiment 1, the positive reference compound LY2157299 and the BioXcell PD-L1 monoclonal antibody (BioXcell-mPD-L1), which are used alone or in combination in vivo.
Mouse colon cancer CT-26 cells were cultured in vitro in a single layer, and culture conditions is RPMI1640 medium (Medium No. 1640, Roswell Parker Memorial Institute) supplemented with 10% fetal bovine serum at 37° C., 5% CO2. Passage was routinely digested with trypsin-EDTA twice a week. When the cell saturation is 80%-90%, the cells are collected, counted, and inoculated.
0.1 mL (1×10^5) CT-26 cells were subcutaneously inoculated into the right back of each BALB/c mouse. The mice were administered in groups according to the body weight of the mice on the second day after cell inoculation.
The experimental indicator is to investigate whether tumor growth is inhibited, delayed or cured. Tumor diameters were measured with Vernier calipers twice a week. The tumor volume is calculated as: V=0.5a×b^2, and a and b represent the long and short diameters of the tumor, respectively.
The antitumor effect of the compound was evaluated by TGI (%) or tumor proliferation rate T/C (%). TGI (%) reflects the tumor growth inhibition rate. Calculation of TGI (%): TGI (%)=[(1-(mean tumor volume at the end of administration of a treatment group—mean tumor volume at the start of administration of the treatment group))/(mean tumor volume at the end of treatment of the solvent control group)—mean tumor volume at the start of treatment of the solvent control group)]×100%.
Tumor proliferation rate T/C (%): The formula is as follows: T/C %=T/C×100% (T: treatment group; C: negative control group).
Tumor weights were measured after the end of the experiment and the percentage of T/Cweight was calculated. Tweight and Cweight represent the tumor weights of the drug-administered group and the vehicle control group, respectively.
Statistical analysis, including mean and standard error (SEM) of tumor volume at each time point for each group (see Table 4 for specific data). […] T-test was used for comparison between the two groups, and one-way analysis of variance was used for comparison between three or more groups. If there was a significant difference in F values, the Gass-Howell method was used to test. If there is no significant difference in F values, the Dunnet (2-sided) method is used for analysis. All data analysis was performed with SPSS 17.0. A significant difference was considered at p<0.05.

[2] = tested on: mouse breast cancer 4T1 cells; assay: Tumor cell metastasis inhibition in BALB/c mouse orthotopic transplantation model of mouse breast cancer 4T1 cells; type: in vivo; conditions: 75 mg/kg PO once a day × 32
Experimental: Fluorescently labeled mouse breast cancer 4T1-Luc cells were expanded in vitro. Before the cells were collected, the mice were anesthetized with intraperitoneal injection of sodium pentobarbital. After anesthetized mice were fixed, the abdominal skin was disinfected with 70% alcohol. 100 uL of phosphate buffer (containing 0.5×10^6 4T1-luc2 cells) was inoculated into the left side of the fourth pair of abdominal mammary fat pads in mice, and the incision was sutured to disinfect the skin. The animals are kept warm with a warm blanket, observed until they wake up and put back in their cages. 0.1 mg/kg buprenorphine for pain relief was subcutaneously injected 30 min before surgery and 6 hours after surgery.
On the third day after modeling, the animals were subjected to bioluminescence detection by infrared data imaging, randomly grouped according to the fluorescence values, and administered according to the following experimental protocol, see Table 5.
To observe the inhibitory effect of embodiment 1 on tumor growth and metastasis, the experimental endpoint was designed to be 30-35 days after administration, with reference to historical data of the model. At the end of the experiment, the in situ tumor and various organ tissues were dissected, the tumor was weighed, and the fluorescence intensity of each organ was detected by IVIS fluorescence. Growth inhibition of orthotopic tumors can be compared by the weight of the in situ tumor in the experimental endpoint, and the inhibition curve is generated from the tumor volume measurement data twice a week during the experiment. The inhibition of tumor metastasis was determined by the presence or absence of fluorescence detection of each organ and the analysis of relative fluorescence intensity.
At the end of the experiment, the tumor weight will be detected and the relative tumor growth rate T/C (%) will be calculated; the tumor volume is calculated as: V=0.5a×b^2, and a and b represent the long and short diameters of the tumor, respectively. At the same time, the lung, liver, spleen, kidney, intestine and left upper limb were stripped, and fluorescence was detected to determine whether there was metastasis and metastasis intensity and ratio.
The antitumor effect of the compound was evaluated by the tumor growth inhibition rate TGI (%) or the relative tumor growth rate T/C (%).
Calculation of TGI (%): TGI (%)=[(1−mean tumor volume at the end of administration of a treatment group−mean tumor volume at the start of administration of the treatment group))/(mean tumor volume at the end of treatment of the solvent control group−mean tumor volume at the start of administration of the solvent control group)]×100%.
Relative tumor growth rate T/C (%) calculation: T/C(%)=Tt(treatment group)/Ct(control group)×100%, Tt is the average tumor volume at a certain measurement, and Ct takes the same day data.
The experimental results were statistically analyzed using one-way ANOVA. If there is a significant difference in F values, multiple comparisons should be made after ANOVA analysis. All data in this experiment were analyzed using SPSS 17.0. A significant difference was considered at p<0.05.
At the end of the experiment, each organ tissue was peeled off, and fluorescence imaging and fluorescence intensity value recording were measured by IVIS for 40 sec exposure within 8 min. The fluorescence imaging results of the tested tissues of the 10 animals excised by the maximum and minimum values are shown in Table 6.
According to the experimental end point, the fluorescence intensity of each group of organs was normalized by the control group, and the relative fluorescence intensity ratio of each group of organs was obtained. The ratio reflects the level of metastatic intensity on the corresponding organs.

[3] = animals with metastasis/animals in group
[4] = average organ fluorescence relative to control group

SMILES: CNC(=O)/C=C/c1c(-c2c(-c3cccc(C)n3)nn3c2CCC3)ccc2ncnn12 [Embodiment 2]
IC50 [1]: 2 to 5 µM | IC50 (TGF-βRI): 0.05 to 0.5 µM

SMILES: CCNC(=O)/C=C/c1c(-c2c(-c3cccc(C)n3)nn3c2CCC3)ccc2ncnn12 [Embodiment 3]
IC50 [1]: 2 to 5 µM | IC50 (TGF-βRI): 0.05 to 0.5 µM

SMILES: Cc1cccc(-c2nn3c(c2-c2ccc4ncnn4c2/C=C/C(=O)NCCO)CCC3)n1 [Embodiment 5]
IC50 [1]: > 5 µM | IC50 (TGF-βRI): 0.05 to 0.5 µM

SMILES: Cc1cccc(-c2nn(Cc3cccc(C(F)F)c3)cc2-c2ccc3ncnn3c2/C=C/C(N)=O)n1 [Embodiment 9]
IC50 [1]: 0.5 to 2 µM | IC50 (TGF-βRI): 0.05 to 0.5 µM

SMILES: CCc1cccc(-c2nn3c(c2-c2ccc4ncnn4c2/C=C/C(N)=O)CCC3)n1 [Embodiment 10]
IC50 [1]: 2 to 5 µM | IC50 (TGF-βRI): 0.05 to 0.5 µM

SMILES: Cc1cc(C)nc(-c2nn3c(c2-c2ccc4ncnn4c2/C=C/C(N)=O)CCC3)c1 [Embodiment 11]
IC50 (TGF-βRI): > 0.5 µM

SMILES: Cc1nc(-c2nn3c(c2-c2ccc4ncnn4c2/C=C/C(N)=O)CCC3)ccc1Cl [Embodiment 12]
IC50 (TGF-βRI): > 0.5 µM

SMILES: Cc1cccc(-c2nn3c(c2-c2ccnc4ccc(C(N)=O)cc24)CCC3)n1 [LY2157299, Galunisertib, reference compound]
Patients with a decrease in serum alpha-fetoprotein (AFP) level of more than 20% (liver cancer): about 23% | Tumor volume (CT-26 cells; day 10 of administration): 98 ± 14 mm^3 | Tumor volume (CT-26 cells; day 13 of administration): 446 ± 104 mm^3 | Tumor volume (CT-26 cells; day 15 of administration): 840 ± 177 mm^3 | Tumor volume (CT-26 cells; day 17 of administration): 1256 ± 257 mm^3 | Tumor volume (CT-26 cells; day 20 of administration): 2186 mm^3 and 2186 ± 435 mm^3 | Tumor proliferation rate T/C (CT-26 cells; twenty days after start of administration, 75 mg/kg PO and/or 10 mg/kg IP): 85% | Antitumor effect compared with the solvent control group (CT-26 cells; twenty days after start of administration, 75 mg/kg and/or 10 mg/kg): no significant antitumor effect | Metastasis rate, intestine [2, 3]: 60% | Metastasis rate, kidney [2, 3]: 30% | Metastasis rate, liver [2, 3]: 80% | Metastasis rate, lung [2, 3]: 100% | Metastasis rate, spleen [2, 3]: 10% | Metastasis rate, upper limb [2, 3]: 70% | Metastasis level, intestine [2, 4]: 41% | Metastasis level, kidney [2, 4]: 121% | Metastasis level, liver [2, 4]: 31% | Metastasis level, lung [2, 4]: 20% | Metastasis level, spleen [2, 4]: 4% | Metastasis level, upper limb [2, 4]: 54%

Continued, in another order:

IC50 (TGF-βRI): 0.05 to 0.5 µM
SMILES: Cc1cccc(-c2nn3c(c2-c2ccc4ncnn4c2/C=C/C(=O)NC2CC2)CCC3)n1 [Embodiment 4]
IC50 [1]: 2 to 5 µM

IC50 (TGF-βRI): 0.05 to 0.5 µM
SMILES: Cc1cccc(-c2nn(Cc3cccc(C#N)c3)cc2-c2ccc3ncnn3c2/C=C/C(N)=O)n1 [Embodiment 6]
IC50 [1]: 0.5 to 2 µM

IC50 (TGF-βRI): 0.05 to 0.5 µM
SMILES: Cc1cccc(-c2nn(C3CCCC3)cc2-c2ccc3ncnn3c2/C=C/C(N)=O)n1 [Embodiment 7]

IC50 (TGF-βRI): 0.05 to 0.5 µM
SMILES: Cc1cccc(-c2nn(C(C)C)cc2-c2ccc3ncnn3c2/C=C/C(N)=O)n1 [Embodiment 8]
IC50 [1]: 2 to 5 µM

From patent publication US10548883B2, “Benzotriazole-derived α and β-unsaturated amide compound used as TGF-β RI inhibitor” (GENFLEET THERAPEUTICS (SHANGHAI) INC., priority 2016, dated 2020)
